Holding throughout (format): in vivo
What all share (conditions): mean of three results

In one experiment the test system is Brassica napus. As to the kind of experiment: Drought stress test, spray application to greenhouse plants (Brassica napus). On the procedure:
(§1) Seeds of monocotyledonous and dicotyledonous crop plants were laid out in sandy loam in wood-fiber pots, covered with soil and cultivated in a greenhouse under good growth conditions. The test plants were treated at the early leaf stage (BBCH10-BBCH13). To ensure uniform water supply before commencement of stress, the potted plants were supplied with the maximum amount of water immediately beforehand by dam irrigation and, after application, transferred into plastic inserts in order to prevent subsequent, excessively rapid drying. The compounds according to the invention, formulated in the form of wettable powders (WP), wettable granules (WG), suspension concentrates (SC) or emulsion concentrates (EC), were sprayed onto the green parts of the plants as an aqueous suspension at an equivalent water application rate of 600 l/ha with addition of 0.2% wetting agent (agrotin). Substance application is followed immediately by stress treatment of the plants (cold or drought stress). For cold stress treatment, the plants were kept under the following controlled conditions: • “day”: 12 hours with illumination at 8° C. • “night”: 12 hours without illumination at 1° C.
(§2) Drought stress was induced by gradual drying out under the following conditions: • “day”: 14 hours with illumination at 26° C. • “night”: 10 hours without illumination at 18° C.
(§3) The duration of the respective stress phases was guided mainly by the state of the untreated (=treated with blank formulation but without test compound), stressed control plants and thus varied from crop to crop. It was ended (by re-irrigating or transfer to a greenhouse with good growth conditions) as soon as irreversible damage was observed on the untreated, stressed control plants. In the case of dicotyledonous crops, for example oilseed rape and soybeans, the duration of the drought stress phase varied between 3 and 5 days; in the case of monocotyledonous crops, for example wheat, barley or corn, it varied between 6 and 10 days. The duration of the cold stress phase varied between 12 and 14 days.
(§4) The end of the stress phase was followed by an approx. 5-7-day recovery phase, during which the plants were once again kept under good growth conditions in a greenhouse. In order to rule out any influence of the effects observed by any fungicidal action of the test compounds, it was additionally ensured that the tests proceeded without fungal infection and without infection pressure.
(§5) After the recovery phase had ended, the intensities of damage were rated visually in comparison to untreated, unstressed controls of the same age (in the case of drought stress) or the same growth stage (in the case of cold stress). The intensity of damage was first recorded as a percentage (100%=plants have died, 0%=like control plants). These values were then used to calculate the efficacy of the test compounds (=percentage reduction in the intensity of damage as a result of substance application) by the following formula:
(§6) [formula] EF: efficacy (%) DVus: damage value of the untreated, stressed control DVts: damage value of the plants treated with test compound
(§7) The tables below list mean values in each case from three results of the same test.
(§8) Efficacies of selected compounds of the formula (I) under drought stress: […]

Another experiment has as its system Triticum aestivum. As to the kind of experiment: Drought stress test, spray application to greenhouse plants (Triticum aestivum). On the procedure:
as §1, §2, §3, §4, §5, §6, §7, §8

Another experiment concerns Zea mays. The experiment is described as follows: Drought stress test, spray application to greenhouse plants (Zea mays). On the procedure:
as §1, §2, §3, §4, §5, §6, §7, §8

For the compound `CCC/C(C#CC1(O)C(C)=CC(=O)CC1(C)C)=C/C(=O)OCC` (centres unmarked) [I.1-2, Ethyl (2Z)-3-[(1-hydroxy-2,6,6-trimethyl-4-oxocyclohex-2-en-1-yl)ethynyl]hex-2-enoate], in the experiment on Brassica napus (dosage 250 g/ha), the “EF (BRSNS), efficacy = percentage reduction in the intensity of damage” value is above 5%. Also, the “EF (TRZAS), efficacy = percentage reduction in the intensity of damage” value in the experiment with Triticum aestivum (dosage 250 g/ha) was above 5%.
As for `CCCC(=C/C(=O)OCC)/C=C/C1(O)C(C)=CC(=O)CC1(C)C` (centres unmarked) [I.1-4, Ethyl (2Z)-3-[(E)-2-(1-hydroxy-2,6,6-trimethyl-4-oxocyclohex-2-en-1-yl)vinyl]hex-2-enoate], in the experiment with Brassica napus (dosage 250 g/ha), the “EF (BRSNS), efficacy = percentage reduction in the intensity of damage” value is above 5%. Also, the “EF (TRZAS), efficacy = percentage reduction in the intensity of damage” value in the experiment on Triticum aestivum (dosage 250 g/ha) is on record as above 5%.
Regarding `CCOC(=O)C=C(C#CC1(O)C(C)=CC(=O)CC1(C)C)CC` (centres unmarked) [I.1-8], the “EF (BRSNS), efficacy = percentage reduction in the intensity of damage” value with Brassica napus (dosage 250 g/ha) is recorded as above 5%. The “EF (TRZAS), efficacy = percentage reduction in the intensity of damage” value with Triticum aestivum (dosage 250 g/ha) is above 5%.
For `CCOC(=O)C=C(C=CC1(O)C(C)=CC(=O)CC1(C)C)CC` (centres unmarked) [I.1-10], the “EF (BRSNS), efficacy = percentage reduction in the intensity of damage” value in the experiment on Brassica napus (dosage 250 g/ha) is reported as above 5%. For the same compound, the “EF (ZEAMX), efficacy = percentage reduction in the intensity of damage” value with Zea mays (dosage 250 g/ha) is on record as above 5%. Further, in the experiment with Triticum aestivum (dosage 250 g/ha), the “EF (TRZAS), efficacy = percentage reduction in the intensity of damage” value is above 5%.
On to `CCOC(=O)/C=C(\C#CC1(O)C(C)=CC(=O)CC1(C)C)C(F)(F)F` (centres unmarked) [I.1-14, Ethyl (2E)-5-(1-hydroxy-2,6,6-trimethyl-4-oxocyclohex-2-en-1-yl)-3-(trifluoromethyl)pent-2-en-4-ynoate], for which, in the experiment on Zea mays (dosage 25 g/ha), the “EF (ZEAMX), efficacy = percentage reduction in the intensity of damage” value is above 5%.
Turning to `CCOC(=O)/C=C(\C=C\C1(O)C(C)=CC(=O)CC1(C)C)C(F)(F)F` (centres unmarked) [I.1-16, Ethyl (2E,4E)-5-(1-hydroxy-2,6,6-trimethyl-4-oxocyclohex-2-en-1-yl)-3-(trifluoromethyl)penta-2,4-dienoate], in the experiment on Brassica napus (dosage 250 g/ha), the “EF (BRSNS), efficacy = percentage reduction in the intensity of damage” value is above 5%. For the same compound, the “EF (TRZAS), efficacy = percentage reduction in the intensity of damage” value in the experiment on Triticum aestivum (dosage 250 g/ha) was above 5%.
As for `CCC(C=CC1(O)C(C)=CC(=O)CC1(C)C)=CC(=O)O` (centres unmarked) [I.1-20], the “EF (BRSNS), efficacy = percentage reduction in the intensity of damage” value in the experiment with Brassica napus (dosage 250 g/ha) is reported as above 5%. In the experiment on Zea mays (dosage 250 g/ha), the “EF (ZEAMX), efficacy = percentage reduction in the intensity of damage” value was above 5%. The “EF (TRZAS), efficacy = percentage reduction in the intensity of damage” value with Triticum aestivum (dosage 250 g/ha) is above 5%.
Take `CC1=CC(=O)CC(C)(C)C1(O)C#C/C(=C\C(=O)O)C(F)(F)F` (centres unmarked) [I.1-23, (2E)-5-(1-Hydroxy-2,6,6-trimethyl-4-oxocyclohex-2-en-1-yl)-3-(trifluoromethyl)pent-2-en-4-ynoic acid]: the “EF (BRSNS), efficacy = percentage reduction in the intensity of damage” value in the experiment with Brassica napus (dosage 250 g/ha) is recorded as above 5%. Besides, the “EF (ZEAMX), efficacy = percentage reduction in the intensity of damage” value in the experiment on Zea mays (dosage 250 g/ha) is above 5%. In the experiment with Triticum aestivum (dosage 250 g/ha), the “EF (TRZAS), efficacy = percentage reduction in the intensity of damage” value is listed as above 5%.
As to `CC1=CC(=O)CC(C)(C)C1(O)C=CC(=CC(=O)O)C1CC1` (centres unmarked) [I.1-46], in the experiment with Brassica napus (dosage 250 g/ha), the “EF (BRSNS), efficacy = percentage reduction in the intensity of damage” value is listed as above 5%. For the same compound, the “EF (ZEAMX), efficacy = percentage reduction in the intensity of damage” value in the experiment with Zea mays (dosage 250 g/ha) is above 5%. In the experiment with Triticum aestivum (dosage 250 g/ha), the “EF (TRZAS), efficacy = percentage reduction in the intensity of damage” value is given as above 5%.
Take `CCCCC(C#CC1(O)C(C)=CC(=O)CC1(C)C)=CC(=O)OCC` (centres unmarked) [I.1-60]: the “EF (BRSNS), efficacy = percentage reduction in the intensity of damage” value in the experiment on Brassica napus (dosage 250 g/ha) was above 5%. In the experiment on Triticum aestivum (dosage 250 g/ha), the “EF (TRZAS), efficacy = percentage reduction in the intensity of damage” value is listed as above 5%.
With `CCCCCC(C=CC1(O)C(C)=CC(=O)CC1(C)C)=CC(=O)OCC` (centres unmarked) [I.1-68], in the experiment on Brassica napus (dosage 250 g/ha), the “EF (BRSNS), efficacy = percentage reduction in the intensity of damage” value was above 5%.
The same measure, in the same setting: in the case of `CCCCCCC(C#CC1(O)C(C)=CC(=O)CC1(C)C)=CC(=O)OCC` (centres unmarked) [I.1-72] it was above 5%; in that of `CCCCCCC(C=CC1(O)C(C)=CC(=O)CC1(C)C)=CC(=O)OCC` (centres unmarked) [I.1-74], above 5%.
`CCOC(=O)C=C(C#CC1(O)C(C)=CC(=O)CC1(C)C)C(C)C` (centres unmarked) [I.1-84]: in the experiment with Zea mays (dosage 250 g/ha), the “EF (ZEAMX), efficacy = percentage reduction in the intensity of damage” value was above 5%.
For `CCOC(=O)C=C(C=CC1(O)C(C)=CC(=O)CC1(C)C)C(C)C` (centres unmarked) [I.1-86], the “EF (TRZAS), efficacy = percentage reduction in the intensity of damage” value with Triticum aestivum (dosage 250 g/ha) is given as above 5%.
In the case of `CCOC(=O)C=C(C=CC1(O)C(C)=CC(=O)CC1(C)C)C(C)(C)C` (centres unmarked) [I.1-92], the “EF (ZEAMX), efficacy = percentage reduction in the intensity of damage” value in the experiment on Zea mays (dosage 250 g/ha) is recorded as above 5%. For the same compound, the “EF (TRZAS), efficacy = percentage reduction in the intensity of damage” value in the experiment on Triticum aestivum (dosage 250 g/ha) was above 5%.
As to `CCOC(=O)C=C(C#CC1(O)C(C)=CC(=O)CC1(C)C)C1CC1` (centres unmarked) [I.1-114], the “EF (BRSNS), efficacy = percentage reduction in the intensity of damage” value with Brassica napus (dosage 250 g/ha) is given as above 5%. In addition, in the experiment with Triticum aestivum (dosage 250 g/ha), the “EF (TRZAS), efficacy = percentage reduction in the intensity of damage” value was above 5%.
On to `CCOC(=O)C=C(C=CC1(O)C(C)=CC(=O)CC1(C)C)C1CC1` (centres unmarked) [I.1-116], for which the “EF (BRSNS), efficacy = percentage reduction in the intensity of damage” value in the experiment on Brassica napus (dosage 250 g/ha) is given as above 5%. Besides, the “EF (TRZAS), efficacy = percentage reduction in the intensity of damage” value in the experiment on Triticum aestivum (dosage 250 g/ha) is recorded as above 5%.
As for `CCOC(=O)C=C(C#CC1(O)C(C)=CC(=O)CC1(C)C)C1CCCC1` (centres unmarked) [I.1-122], the “EF (TRZAS), efficacy = percentage reduction in the intensity of damage” value in the experiment with Triticum aestivum (dosage 25 g/ha) is given as above 5%.
Consider `CCOC(=O)C=C(C=CC1(O)C(C)=CC(=O)CC1(C)C)C1CCCC1` (centres unmarked) [I.1-124], for which the “EF (TRZAS), efficacy = percentage reduction in the intensity of damage” value in the experiment on Triticum aestivum (dosage 250 g/ha) is above 5%.
As for `CCC(C#CC1(O)C(C)=CC(=O)CC1(C)C)=CC(=O)OC` (centres unmarked) [I.1-142], the “EF (BRSNS), efficacy = percentage reduction in the intensity of damage” value in the experiment with Brassica napus (dosage 250 g/ha) is given as above 5%. Besides, the “EF (ZEAMX), efficacy = percentage reduction in the intensity of damage” value with Zea mays (dosage 250 g/ha) is above 5%. Further, in the experiment with Triticum aestivum (dosage 250 g/ha), the “EF (TRZAS), efficacy = percentage reduction in the intensity of damage” value was above 5%.
`CCC(C=CC1(O)C(C)=CC(=O)CC1(C)C)=CC(=O)OC` (centres unmarked) [I.1-144]: the “EF (BRSNS), efficacy = percentage reduction in the intensity of damage” value with Brassica napus (dosage 25 g/ha) was above 5%. Moreover, the “EF (TRZAS), efficacy = percentage reduction in the intensity of damage” value in the experiment on Triticum aestivum (dosage 25 g/ha) is reported as above 5%.
Regarding `CCC(C#CC1(O)C(C)=CC(=O)CC1(C)C)=CC(=O)NC(C)C` (centres unmarked) [I.2-14], in the experiment on Zea mays (dosage 25 g/ha), the “EF (ZEAMX), efficacy = percentage reduction in the intensity of damage” value is reported as above 5%.
As to `CCC(C#CC1(O)C(C)=CC(=O)CC1(C)C)=CC(=O)NC1CC1` (centres unmarked) [I.2-18], the “EF (BRSNS), efficacy = percentage reduction in the intensity of damage” value with Brassica napus (dosage 250 g/ha) was above 5%. In addition, the “EF (ZEAMX), efficacy = percentage reduction in the intensity of damage” value in the experiment on Zea mays (dosage 25 g/ha) is reported as above 5%.
